Toxic doses and inconclusive results are not listed. Cut-off read from the data, not from the text of the source: active = T/C of 150% or more; inactive = T/C below 125%.
Test system: L1210 leukemia ip in BDF1 mice, survival T/C
Assay: NCI In Vivo Anticancer Drug Screen. Data for tumor model L1210 Leukemia (intraperitoneal) in B6D2F1 (BDF1) mice
Settings: endpoint: mean survival time, higher = longer survival
Outline: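 Read-out is survival time, reported as the treated-group measurement over the vehicle-control measurement.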

[1] = dose: 12.5 mg/kg/injection, schedule: Q04DX003 (ip), vehicle: saline
[2] = dose: 25.0 mg/kg/injection, schedule: Q04DX003 (ip), vehicle: saline
[3] = dose: 50.0 mg/kg/injection, schedule: Q04DX003 (ip), vehicle: saline
[4] = dose: 100.0 mg/kg/injection, schedule: Q04DX003 (ip), vehicle: saline
[5] = dose: 200.0 mg/kg/injection, schedule: Q04DX003 (ip), vehicle: saline
[6] = dose: 100.0 mg/kg/injection, schedule: Q01DX001 (ip), vehicle: Klucel (hydroxypropylcellulose) (HPC)
[7] = dose: 200.0 mg/kg/injection, schedule: Q01DX001 (ip), vehicle: Klucel (hydroxypropylcellulose) (HPC)
[8] = dose: 400.0 mg/kg/injection, schedule: Q01DX001 (ip), vehicle: Klucel (hydroxypropylcellulose) (HPC)
[9] = dose: 100.0 mg/kg/injection, schedule: Q04DX003 (ip), vehicle: Klucel (hydroxypropylcellulose) (HPC)
[10] = dose: 200.0 mg/kg/injection, schedule: Q04DX003 (ip), vehicle: Klucel (hydroxypropylcellulose) (HPC)
[11] = dose: 400.0 mg/kg/injection, schedule: Q04DX003 (ip), vehicle: Klucel (hydroxypropylcellulose) (HPC)
[12] = dose: 100.0 mg/kg/injection, schedule: Q01DX001 (ip), vehicle: saline
[13] = dose: 200.0 mg/kg/injection, schedule: Q01DX001 (ip), vehicle: saline
[14] = dose: 100.0 mg/kg/injection, schedule: Q04DX002 (ip), vehicle: Klucel (hydroxypropylcellulose) (HPC)
[15] = dose: 200.0 mg/kg/injection, schedule: Q04DX002 (ip), vehicle: Klucel (hydroxypropylcellulose) (HPC)
[16] = dose: 400.0 mg/kg/injection, schedule: Q04DX002 (ip), vehicle: Klucel (hydroxypropylcellulose) (HPC)
[17] = dose: 100.0 mg/kg/injection, schedule: Q04DX003 (ip), vehicle: saline with Tween-80
[18] = dose: 200.0 mg/kg/injection, schedule: Q04DX003 (ip), vehicle: saline with Tween-80
[19] = dose: 400.0 mg/kg/injection, schedule: Q04DX003 (ip), vehicle: saline with Tween-80
[20] = dose: 100.0 mg/kg/injection, schedule: Q01DX009 (ip), vehicle: saline with Tween-80
[21] = dose: 200.0 mg/kg/injection, schedule: Q01DX009 (ip), vehicle: saline with Tween-80

Measured: T/C

CN(C)/C=N\c1ncnc2c1ncn2C1OC(CO)C(O)C1O (centres undefined)
inactive: dose: 100.0 mg/kg/injection, schedule: Q04DX002 (ip), vehicle: saline with Tween-80 102 % of control | dose: 200.0 mg/kg/injection, schedule: Q04DX002 (ip), vehicle: saline with Tween-80 98 % of control | dose: 400.0 mg/kg/injection, schedule: Q04DX002 (ip), vehicle: saline with Tween-80 102 % of control

C[N+](C)(C)C1CS(=O)C1 (centres undefined)
inactive: [1] 96 % of control | [2] 112 % of control | [3] 87 % of control

C[N+](C)(C)CC1C2C=CC(C2)C1CO (centres undefined)
inactive: [4] 110 % of control | [5] 107 % of control | dose: 400.0 mg/kg/injection, schedule: Q04DX003 (ip), vehicle: saline 100 % of control

O=C(NCCCl)NC1(C(=O)O)CCCC1
inactive: [6] 98 % of control | [7] 107 % of control | [8] 98 % of control

CC=C=[CH][Sn]([CH2]CC)([CH2]CC)[CH2]CC
inactive: dose: 75.0 mg/kg/injection, schedule: Q01DX001 (ip), vehicle: saline 91 % of control

c1cncc(C2SCCCS2)c1
inactive: dose: 100.0 mg/kg/injection, schedule: Q04DX002 (ip), vehicle: DMSO 87 % of control | dose: 200.0 mg/kg/injection, schedule: Q04DX002 (ip), vehicle: DMSO 87 % of control

COc1ccc(C=Nc2cccc3ccccc23)cc1
inactive: [9] 98 % of control | [10] 96 % of control | [11] 103 % of control

CCC1C(=O)OCc2c1ccn(C)c2=O (centres undefined)
inactive: dose: 25.0 mg/kg/injection, schedule: Q01DX001 (ip), vehicle: saline 114 % of control | [2] 95 % of control | dose: 50.0 mg/kg/injection, schedule: Q01DX001 (ip), vehicle: saline 104 % of control | [3] 95 % of control | [12] 103 % of control | [4] 101 % of control | [13] 106 % of control | [5] 101 % of control

CC(CCOC(=O)c1ccccc1)=C(c1ccccc1)c1ccccc1
inactive: [14] 107 % of control | [15] 95 % of control | [16] 95 % of control

c1ccc2c(C3OCC4(CC4)CO3)cccc2c1
inactive: dose: 25.0 mg/kg/injection, schedule: Q01DX001 (ip), vehicle: Klucel (hydroxypropylcellulose) (HPC) 100 % of control | dose: 50.0 mg/kg/injection, schedule: Q01DX001 (ip), vehicle: Klucel (hydroxypropylcellulose) (HPC) 96 % of control | [6] 105 % of control

CCOC(=O)CSc1ccc2ccccc2[n+]1-c1ccccc1
inactive: [12] 99 % of control | [13] 94 % of control

NC(=O)C(NC(=O)c1ccc([N+](=O)[O-])cc1)Sc1ccccc1 (centres undefined)
inactive: [14] 109 % of control | [15] 106 % of control | [16] 101 % of control

O=C(C1C2C=CC(C2)C1C(=O)N1CCOCC1)N1CCOCC1 (centres undefined)
inactive: [17] 107 % of control | [18] 102 % of control | [19] 107 % of control

CC(C)c1ccc(OS(=O)(=O)c2cccc([N+](=O)[O-])c2)cc1
inactive: [17] 100 % of control | [18] 100 % of control | [19] 98 % of control

O=C(O)C=C(CBr)CBr
inactive: dose: 10.0 mg/kg/injection, schedule: Q01DX001 (ip), vehicle: saline 93 % of control | dose: 20.0 mg/kg/injection, schedule: Q01DX001 (ip), vehicle: saline 94 % of control | dose: 40.0 mg/kg/injection, schedule: Q01DX001 (ip), vehicle: saline 109 % of control

CCCCCCCCCCCCCCCC(=O)NNC(C)C
inactive: dose: 25.0 mg/kg/injection, schedule: Q01DX009 (ip), vehicle: Klucel (hydroxypropylcellulose) (HPC) 94 % of control | dose: 25.0 mg/kg/injection, schedule: Q04DX003 (ip), vehicle: Klucel (hydroxypropylcellulose) (HPC) 94 % of control | dose: 50.0 mg/kg/injection, schedule: Q01DX009 (ip), vehicle: Klucel (hydroxypropylcellulose) (HPC) 95 % of control | dose: 50.0 mg/kg/injection, schedule: Q04DX003 (ip), vehicle: Klucel (hydroxypropylcellulose) (HPC) 91 % of control | dose: 100.0 mg/kg/injection, schedule: Q01DX009 (ip), vehicle: Klucel (hydroxypropylcellulose) (HPC) 86 % of control | [9] 105 % of control | dose: 200.0 mg/kg/injection, schedule: Q01DX009 (ip), vehicle: Klucel (hydroxypropylcellulose) (HPC) 91 % of control | [10] 89 % of control | dose: 400.0 mg/kg/injection, schedule: Q01DX009 (ip), vehicle: Klucel (hydroxypropylcellulose) (HPC) 92 % of control | [11] 89 % of control

CC(=O)Oc1cc(C(C)=O)c(O)c2ccccc12
inactive: dose: 100.0 mg/kg/injection, schedule: Q01DX001 (ip), vehicle: water 95 % of control | dose: 200.0 mg/kg/injection, schedule: Q01DX001 (ip), vehicle: water 93 % of control

[NH-]C(Cc1ccccc1)C(=O)O.[NH-]C(Cc1ccccc1)C(=O)O.[Ni+2] (centres undefined)
inactive: [1] 95 % of control | [2] 95 % of control | [3] 98 % of control

CCOC(=O)COCC(C)=O
inactive: dose: 50.0 mg/kg/injection, schedule: Q01DX009 (ip), vehicle: saline with Tween-80 92 % of control | [20] 96 % of control | [21] 96 % of control

O=C(COc1cc(Cl)c(Cl)cc1Cl)Nc1cccc2c1C(=O)c1ccccc1C2=O
inactive: dose: 75.0 mg/kg/injection, schedule: Q04DX002 (ip), vehicle: Klucel (hydroxypropylcellulose) (HPC) 98 % of control | dose: 150.0 mg/kg/injection, schedule: Q04DX002 (ip), vehicle: Klucel (hydroxypropylcellulose) (HPC) 103 % of control | dose: 300.0 mg/kg/injection, schedule: Q04DX002 (ip), vehicle: Klucel (hydroxypropylcellulose) (HPC) 103 % of control

N#C/C(=C/c1ccc(Cl)cc1)C(=O)O
inactive: dose: 62.5 mg/kg/injection, schedule: Q01DX009 (ip), vehicle: Klucel (hydroxypropylcellulose) (HPC) 115 % of control | [14] 109 % of control | dose: 125.0 mg/kg/injection, schedule: Q01DX009 (ip), vehicle: Klucel (hydroxypropylcellulose) (HPC) 86 % of control | [15] 98 % of control | dose: 250.0 mg/kg/injection, schedule: Q01DX009 (ip), vehicle: Klucel (hydroxypropylcellulose) (HPC) 86 % of control

O=C(Cn1ccc(=O)[nH]c1=O)c1ccc(Cl)s1
inactive: [20] 100 % of control | [17] 96 % of control | [21] 97 % of control | [18] 98 % of control | dose: 400.0 mg/kg/injection, schedule: Q01DX009 (ip), vehicle: saline with Tween-80 91 % of control | [19] 104 % of control

COc1ccc(CN2CCCN(Cc3ccc(OC)cc3)C2c2ccc(NC(C)=O)cc2)cc1
inactive: dose: 100.0 mg/kg/injection, schedule: Q01DX001 (ip), vehicle: acetone 100 % of control | dose: 200.0 mg/kg/injection, schedule: Q01DX001 (ip), vehicle: acetone 100 % of control

Cc1ccnc(NC(=O)NCCCl)c1
inactive: dose: 100.0 mg/kg/injection, schedule: Q01DX001 (ip), vehicle: carboxymethylcellulose (CMC) 103 % of control | dose: 200.0 mg/kg/injection, schedule: Q01DX001 (ip), vehicle: carboxymethylcellulose (CMC) 108 % of control | dose: 400.0 mg/kg/injection, schedule: Q01DX001 (ip), vehicle: carboxymethylcellulose (CMC) 108 % of control

COc1ccc(C(=O)NC(SC)C(N)=O)cc1 (centres undefined)
inactive: [14] 90 % of control | [15] 101 % of control | [16] 93 % of control

CC1CN(Cc2ccccc2)CC(C)N1 (centres undefined)
inactive: dose: 25.0 mg/kg/injection, schedule: Q01DX009 (ip), vehicle: water 95 % of control | dose: 50.0 mg/kg/injection, schedule: Q01DX009 (ip), vehicle: water 95 % of control | dose: 100.0 mg/kg/injection, schedule: Q01DX009 (ip), vehicle: water 104 % of control | dose: 100.0 mg/kg/injection, schedule: Q04DX003 (ip), vehicle: water 110 % of control | dose: 200.0 mg/kg/injection, schedule: Q04DX003 (ip), vehicle: water 115 % of control

Nc1cccc2ccc3ccc4ccccc4c3c12
inactive: [6] 105 % of control | [7] 94 % of control | [8] 97 % of control

— PubChem BioAssay AID248 (DTP/NCI, 2004)
